Data taken from patent EP2158208B1, “PROCESS FOR PREPARING AN A2A-ADENOSINE RECEPTOR AGONIST AND ITS POLYMORPHS” (Gilead Sciences, Inc., priority 2007, dated 2008).

Legend:
[1] = target: A2A-adenosine receptor (Homo sapiens, UniProt P29274); details: disclosed in U.S. Patent No. 6,403,567; cited from earlier work
[2] = in humans; cited from earlier work
[3] = stability of polymorphs under relative humidity stress / atmospheric moisture; type: physicochemical; details: for stability under relative humidity stress conditions: up to melting point, monohydrate
Protocol: Moisture sorption/desorption data were collected on a VTI SGA-100 Vapor Sorption Analyzer. Sorption and desorption data were collected over a range of 5% to 95% relative humidity […] at 10% RH intervals under a nitrogen purge. Sodium chloride (NaCl) and polyvinylpyrrolidone (PVP) were used as the calibration standards. Equilibrium criteria used for analysis were less than 0.0100% weight change in 5 minutes, with a maximum equilibration time of 180 minutes if the weight criterion was not met. The plotted data have not been corrected for the initial moisture content.

[4] = stability of polymorphs with temperature (thermal analyses); type: physicochemical; details: for relative stability among the polymorphs: at ambient temperatures, monohydrate
Protocol: Thermogravimetric (TG) analyses were carried out on a TA Instruments 2050 or 2950 thermogravimetric analyzer. The calibration standards were nickel and Alumel™. Samples were placed in an aluminum sample pan, inserted into the TG furnace, and accurately weighed. The samples were heated in nitrogen at a rate of 10°C/min to either 300 or 350° C. Unless stated otherwise, samples weights were equilibrated at 25°C in the TGA furnace prior to analysis.
Differential scanning calorimetry (DSC) analyses were carried out on a TA Instruments differential scanning calorimeter 2920. Accurately weighed samples were placed in either crimped pans or hermetically sealed pans that contained a pinhole to allow for pressure release. Each sample was heated under nitrogen at a rate of 10°C/min to either 300 or 350°C. Indium metal was used as the calibration standard. Temperatures were reported at the transition maxima.

Chain of A2A-adenosine receptor (P29274 whole entry): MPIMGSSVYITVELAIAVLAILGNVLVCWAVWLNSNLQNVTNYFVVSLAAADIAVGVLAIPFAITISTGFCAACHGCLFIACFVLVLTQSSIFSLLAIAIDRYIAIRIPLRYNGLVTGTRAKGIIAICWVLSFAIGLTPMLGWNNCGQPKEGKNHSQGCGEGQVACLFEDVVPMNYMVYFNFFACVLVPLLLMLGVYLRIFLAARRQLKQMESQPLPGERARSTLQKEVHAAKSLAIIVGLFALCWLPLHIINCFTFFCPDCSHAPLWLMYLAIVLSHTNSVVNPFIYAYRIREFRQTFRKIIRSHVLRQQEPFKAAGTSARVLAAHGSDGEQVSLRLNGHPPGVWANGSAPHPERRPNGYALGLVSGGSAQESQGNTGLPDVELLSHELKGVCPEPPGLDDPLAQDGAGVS

CNC(=O)c1cnn(-c2nc(N)c3ncn([C@@H]4O[C@H](CO)[C@@H](O)[C@H]4O)c3n2)c1 [(1-{9-[(4S,2R,3R,5R)-3,4-dihydroxy-5-(hydroxymethyl)oxolan-2-yl]-6-aminopurin-2-yl}pyrazol-4-yl)-N-methylcarboxamide]
selectivity as A2A-adenosine receptor agonist [1]: highly selective

Nc1ncnc2c1ncn2[C@@H]1O[C@H](CO)[C@@H](O)[C@H]1O [Adenosine]
half life [2]: less than 10 seconds

CNC(=O)c1cnn(-c2nc(N)c3ncn([C@@H]4O[C@H](CO)[C@@H](O)[C@H]4O)c3n2)c1 [Amorphous Material, (1-{9-[(4S,2R,3R,5R)-3,4-dihydroxy-5-(hydroxymethyl)oxolan-2-yl]-6-aminopurin-2-yl}pyrazol-4-yl)-N-methylcarboxamide]
stability in the presence of atmospheric moisture ([3]; atmospheric moisture): unstable in the presence of atmospheric moisture

CNC(=O)c1cnn(-c2nc(N)c3ncn([C@@H]4O[C@H](CO)[C@@H](O)[C@H]4O)c3n2)c1.O [Form A, (1-{9-[(4S,2R,3R,5R)-3,4-dihydroxy-5-(hydroxymethyl)oxolan-2-yl]-6-aminopurin-2-yl}pyrazol-4-yl)-N-methylcarboxamide monohydrate]
stability under relative humidity stress conditions ([3]; listed as monohydrate): stable under relative humidity stress conditions, up to its melting point | stability under relative humidity stress conditions [3]: stable under relative humidity stress conditions up to its melting point | relative stability among the polymorphs ([4]; listed as monohydrate): most stable | relative stability among the polymorphs [4]: most stable of the various polymorphs at ambient temperatures

CNC(=O)c1cnn(-c2nc(N)c3ncn([C@@H]4O[C@H](CO)[C@@H](O)[C@H]4O)c3n2)c1 [Form C, (1-{9-[(4S,2R,3R,5R)-3,4-dihydroxy-5-(hydroxymethyl)oxolan-2-yl]-6-aminopurin-2-yl}pyrazol-4-yl)-N-methylcarboxamide]
stability at elevated temperatures ([4]; elevated temperatures): desolvates to an unstable form
